Data published in publication PMC8560897, “Bioevaluation and Targeted Modification of Temporin-FL From the Skin Secretion of Dark-Spotted Frog (Pelophylax nigromaculatus)” (Frontiers in Molecular Biosciences, 2021).
No end group written: not given here.

How the values were obtained:
in vitro = format: cell-based; details: human
Method: Human keratinocyte cell line HaCaT (No.1101HUM-PUMC000373) was obtained from the National Infrastructure of Cell Line Resource (Beijing, China) and cultured in high-glucose Dulbecco’s modified Eagle medium (DMEM), containing 10% fetal bovine serum (FBS) and 1% penicillin and streptomycin (Thermo Fisher Scientific Co., Waltham, MA, United States). The grown cells were digested and quantificationally harvested in a 96-wells plate of cell density of 5 × 10^4×cells/ml. After 24 h incubation, the original medium in wells was replaced with fresh medium containing peptides with 2-fold serial dilution, the final concentrations of peptides ranging from […] to 1 μM. When the cells were treated with peptides for 24 h, the cell medium was changed into 100 μl of 10% CCK-8 solution and incubated for 4 h. The absorbance at 450 nm reflected the cell viability in each well. The growth control was cell culture without peptides and blank control was fresh DMEM without cells.

MRSA ATCC 43300 [1] = format: cell-based, Methicillin-resistant Staphylococcus aureus; details: not told
Method: The bactericidal activity of cationic peptides resulted from membrane disruption. DNA or RNA that leaked out of the cell was stained with SYTOX™ Green Nucleic Acid Stain (Invitrogen Life Technologies, Carlsbad, CA, United States). The MRSA ATCC 43300 bacterial strain was used to evaluate the membrane disruptive potency of the three peptides. The assay was performed according to the procedure described previously with some modifications ([Chen et al., 2018]). Peptides at different concentrations (4 × MIC, 2 × MIC and 1 × MIC) were incubated with the re-suspended bacterial solution at a concentration of 5 × 10^6 CFU/well in the 96-well black plate for 3 h without light. The positive control is 70% isopropanol. SYTOX green dye (the final concentration of 1%) was then added to each well, and the permeabilizing potency was measured as fluorescent intensity using a SpeactraMax i3x plate reader (Molecular Devices, CA, United States). All experiments were done in five replicates for statistical significance.

C. albicans (NCYC 1467) = format: cell-based; details: NCYC 1467, 18 h
Method: (§1) Antimicrobial activity was evaluated by assessing minimal inhibitory concentrations (MICs) and minimal bactericidal concentrations (MBCs). The tested microorganisms comprised three Gram-positive bacterial strains, namely S. aureus (NCTC 10788) and MRSA strains (NCTC 12493 and ATCC 43300), E. coli (NCTC 10418), which is a Gram-negative bacterial strain, and C. albicans (NCYC 1467), a yeast species. Standard microbes were cultured in Muller-Hinton Broth (MHB) and suspended to obtain 5 × 10^5 CFU/ml. Subsequently, the equal volume microorganisms solutions were treated with a 2-fold dilution of peptides, the final concentration of the peptides ranged between 512 and 1 μM. The positive control of bacteria strains S. aureus, MRSA NCTC 12493 and E. coli is 0.2 mg/ml norfloxacin, 16 μM mellitin was used as C. albicans positive control and 0.2 mg/ml vancomycin as a positive control in ATCC 43300 MRSA strains. The solutions were incubated in 96-well plates used for measuring MICs followed for 18 h. The MBC values were assessed based on observations of the colony cultured on Muller-Hinton agar (MHA). The antimicrobial assay was performed in triplicate following the procedure applied in previous studies described ([Huang et al., 2017]).

E. coli (NCTC 10418) = format: cell-based; details: for Antimicrobial activity MBC / Antimicrobial activity MIC: NCTC 10418, 18 h
Method: as §1

MRSA ATCC 43300 [2] = format: cell-based, Methicillin-resistant Staphylococcus aureus; details: ATCC 43300, 18 h
Method: as §1

MRSA NCTC 12493 = format: cell-based, Methicillin-resistant Staphylococcus aureus; details: NCTC 12493, 18 h
Method: as §1

MRSA NCTC 12493 biofilm = format: cell-based, Methicillin-resistant Staphylococcus aureus; details: NCTC 12493, 48 h
Method: (§2) We evaluated the antibiofilm activity of the three AMPs by applying a crystal violet staining assay following previous research with minor modifications ([Chen et al., 2018]), to determine the minimal biofilm inhibitory concentrations (MBICs) and the minimal biofilm eradication concentrations (MBECs). The tested MRSA bacterial strains (NCTC 12493 and ATCC 43300) were incubated and diluted with MHB to achieve a bacterial concentration of 5 × 10^5 CFU/ml. The peptides were undergone a 2-fold dilution and were incubated with diluted MRSA to determine MBIC values. For the MBEC assay, the diluted bacterial culture was incubated for 48 h to obtain a fully grown biofilm, which was treated with various concentrations of peptides dissolved in MHB and incubated for 24 h at 37°C. The positive control in MBIC and MBEC determination is 0.2 mg/ml vancomycin for MRSA ATCC 43300 strain and the aliquote of norfloxacin for MRSA NCTC 12493.

MRSA ATCC 43300 biofilm = format: cell-based, Methicillin-resistant Staphylococcus aureus; details: ATCC 43300, 48 h
Method: as §2

[3] = tested on: defibrinated erythrocytes isolated from whole horse blood; format: cell-based; details: red cells of horse
Description: Following a previous study ([Huang et al., 2017]), we evaluated the hemolytic activity of three peptides using defibrinated erythrocytes isolated from whole horse blood (TCS Biosciences Ltd., Buckingham, United Kingdom). Phosphate-buffered saline (PBS) and 1% Triton X-100 were used as negative and positive controls, respectively, and 1% DMSO/PBS was used as the vehicle control. The HC50 and the therapeutic index (TI = HC50/the geometric mean of MICs against tested bacterial strains of peptide) were calculated to determine the therapeutic potential.

S. aureus (NCTC 10788) = format: cell-based, Staphylococcus aureus; details: NCTC 10788, 18 h
Method: as §1

[4] = tested on: MRSA (ATCC 43300) biofilm; assay: Scanning electron microscopy of MRSA biofilms; format: cell-based, Methicillin-resistant Staphylococcus aureus; details: 1 × MBEC, 24 h
Method: Silicon wafers were cut into small squares (5 mm × 5 mm) and placed at the bottom of a 24-well plate. Each well was then filled with 1 ml of sub-cultured MRSA (ATCC 43300) in MHB at a concentration of 5 × 10^5 CFU/ml and incubated at 37°C in a humid shaking incubator for 48 h to enable the formation of visible biofilms on the silicon wafers. Peptides at concentrations of 1 × MBEC and 4 × MBEC were incubated with PBS-washed MRSA biofilm for 24 h. After the incubation, the silicon wafer in each well was first washed in PBS and then fixed in 2.5% glutaraldehyde at 4°C for 4 h. The fixed biofilm was dehydrated using gradient ethanol solution (30, 50, 70, 80, 90, 95, and 100%) at 10-min intervals. The air-dried biofilm samples were coated with gold film using a LEICA-EM-ACE600 sputter coater instrument (Leica, Germany) and transferred to the field emission scanning electron microscopy (FESEM) system (ZEISS-SUPRA55, Germany) operating at 5 kV to observe the morphology of the peptide-treated biofilm.

[5] = tested on: tested Gram-positive bacterial strains and fungi; format: cell-based; details: 18 h
Method: as §1

[6] = tested on: MRSA (ATCC 43300) biofilm formation; assay: Quantitative biofilm formation assay; format: cell-based, Methicillin-resistant Staphylococcus aureus
Method: Based on the previous study of quantitative biofilm formation assay ([Badmasti et al., 2015]; [Liu et al., 2020]), the crystal violet staining method with moderate modifications was applied for analyzing the capability of MRSA (ATCC 43300) forming biofilms when treated with different concentrations of peptides. Specifically, MRSA strain was cultured in MHB medium at 37°C overnight. Then the bacterial culture was subcultured in fresh MHB medium. The quantificational bacterial suspension (5 × 10^5 CFU/ml) was added into a 96-wells plate together with the tested peptides at different concentrations (2 × MBIC, 1 × MBIC, 1/2 × MBIC and 1/4 × MBIC). The MHB medium without bacteria was negative control and MRSA culture solution was the positive control. The cut-off optical density (ODc) was the mean ± deviation value of the absorbance of negative control at 595 nm. The biofilm formation ability of bacteria samples with different concentrations of peptides were divided into four groups: the negative biofilm formation (−) was the OD595nm ≤ ODc, the weak biofilm formation (+) was the ODc < OD595nm ≤ 2 × ODc, the moderate biofilm formation (++) represented the 2 × ODc < OD595nm ≤ 4 × ODc, and the strong biofilm formation (+++) indicated the OD595nm > 4 × ODc.

[7] = Circular-dichroism spectroscopy, helix content (BESTSEL); format: physicochemical; details: CD
Method: The physiochemical structural analysis entailed website prediction and circular-dichroism (CD) spectroscopy as described previously ([Liu et al., 2017]; [Sang et al., 2018]; [Zhou et al., 2019]). Briefly, temporin-FL and two analogues were dissolved in 10 mM NH4Ac or 10 mM NH4Ac with 50% 2,2,2-trifluoroethanol (TFE) to determine their conformation in different solutions. The 10 mM NH4Ac solution provides a pH stable buffering environment to stabilize peptides and also to prevent system noise and not interfere with CD signals. The results of the CD spectroscopy were inputted into the BESTSEL CD spectrum online analysis tool (http://bestsel.elte.hu/index.php). HeliQuest (https://heliquest.ipmc.cnrs.fr/), and I-Tasser (http://zhanglab.ccmb.med.umich.edu/I-TASSER) were respectively used to determine the helical wheels plots and to predict the 3D secondary structure.

| Substance | IC50 at 24 h (in vitro) [µM] | Membrane permeability ranking among the three peptides (MRSA ATCC 43300 [1]) | Membrane permeabilization, SYTOX Green fluorescent intensity (MRSA ATCC 43300 [1]) | Antimicrobial activity MBC (C. albicans (NCYC 1467)) [µM] | Antimicrobial activity MIC (C. albicans (NCYC 1467)) [µM] | Antimicrobial activity MBC (E. coli (NCTC 10418)) [µM] | Antimicrobial activity MIC (E. coli (NCTC 10418)) [µM] | Antimicrobial activity MBC (MRSA ATCC 43300 [2]) [µM] | Antimicrobial activity MIC (MRSA ATCC 43300 [2]) [µM] | Antimicrobial activity MBC (MRSA NCTC 12493) [µM] | Antimicrobial activity MIC (MRSA NCTC 12493) [µM] | Antibiofilm activity MBEC (MRSA NCTC 12493 biofilm) [µM] | Antibiofilm activity MBIC (MRSA NCTC 12493 biofilm) [µM] | Antibiofilm activity MBEC (MRSA ATCC 43300 biofilm) [µM] | Antibiofilm activity MBIC (MRSA ATCC 43300 biofilm) [µM] | Hemolysis effect HC50 [3] [µM] | Antimicrobial activity MBC (S. aureus (NCTC 10788)) [µM] | Antimicrobial activity MIC (S. aureus (NCTC 10788)) [µM] | further results |
| --- | --- | --- | --- | --- | --- | --- | --- | --- | --- | --- | --- | --- | --- | --- | --- | --- | --- | --- | --- |
| FIPLVSGLFKLL-NH2 [Temporin-FLa, FIPLVSGLFKLL-NH2] | 46.6 | greatest permeability | highest fluorescent intensity | 32 | 8 | 128 | 128 | 8 | 4 | 16 | 4 | 32 | 8 | 8 | 4 | 74.02 | 8 | 4 |  |
| FIPVSGLFKLL-NH2 [Temporin-FLb, FIPVSGLFKLL-NH2] | 375 | lowest | relatively weak | 128 | 32 | 128 | 128 | 128 | 64 | 32 | 16 | 128 | 64 | 128 | 64 | 356.0 | 16 | 8 |  |
| H-FIPLVSGLFSKLL-NH2 [Temporin-FL, FIPLVSGLFSKLL-NH2] | 83.4 | moderate permeabilizing activity | relatively weak | 64 | 32 | 128 | 128 | 32 | 32 | 64 | 32 | 64 | 32 | 64 | 32 | 157.4 | 16 | 16 | Biofilm disruption observed by SEM [4]: moderate bacterial colonies reduction; Activity against Gram-negative bacteria E. coli (in words) (E. coli (NCTC 10418); E. coli): inactive; MICs against tested Gram-positive bacterial strains and fungi [5]: 16 to 32 µM; Biofilm formation ([6]; MRSA ATCC 43300, peptide at 1/2× MBIC): ++ (the moderate biofilm formation (++) represented the 2 × ODc < OD595nm ≤ 4 × ODc); Biofilm formation ([6]; MRSA ATCC 43300, peptide at 1/4× MBIC): ++ (the moderate biofilm formation (++) represented the 2 × ODc < OD595nm ≤ 4 × ODc); Helix in NH4Ac ([7]; 10 mM NH4Ac): 16.7%; Helix in 50%TFE/NH4Ac ([7]; 10 mM NH4Ac with 50% TFE): 92.3% |
